Source: patent publication US20260325533A1, “CDK INHIBITOR COMPOUNDS” (ALEKSIA THERAPEUTICS, INC., priority 2023, published 2026)
Like-named read-outs stand apart in the source and are kept apart here.

Key:
Format in all cases: biochemical
CDK2/CCNE1 = CDK2/CCNE1 (Homo sapiens, UniProt P24941); assay: CDK2 homogeneous time-resolved fluorescence (HTRF) kinase assay; conditions: CDK2/CCNE
How it was run: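 3 nM CDK2/CCNE1 was preincubated with compound for 20 min at 23 °C in HEPES buffer (pH not stated), then reacted 60 min with 1 mM ATP and 50 nM ULight-4E-BP1 (Thr37/46) peptide. After EDTA stop, Eu-anti-phospho-4E-BP1 antibody (2 nM) was added for 60 min and TR-FRET read at 665 nm.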

CDK4/CCND3 = CDK4/CCND3 (Homo sapiens, UniProt P11802); assay: CDK4 homogeneous time-resolved fluorescence (HTRF) kinase assay; conditions: CDK4/CCND
CDK4/CCND3, sequence (P11802 whole entry): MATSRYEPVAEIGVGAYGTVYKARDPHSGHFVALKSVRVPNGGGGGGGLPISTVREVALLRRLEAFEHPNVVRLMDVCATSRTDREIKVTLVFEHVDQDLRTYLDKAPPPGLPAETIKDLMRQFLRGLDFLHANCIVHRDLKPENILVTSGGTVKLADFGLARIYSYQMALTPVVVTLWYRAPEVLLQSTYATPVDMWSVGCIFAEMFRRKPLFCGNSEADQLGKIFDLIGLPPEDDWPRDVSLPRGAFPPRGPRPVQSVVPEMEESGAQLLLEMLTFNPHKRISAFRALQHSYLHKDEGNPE
CDK4/CCND3, sequence (P30281 whole entry partner): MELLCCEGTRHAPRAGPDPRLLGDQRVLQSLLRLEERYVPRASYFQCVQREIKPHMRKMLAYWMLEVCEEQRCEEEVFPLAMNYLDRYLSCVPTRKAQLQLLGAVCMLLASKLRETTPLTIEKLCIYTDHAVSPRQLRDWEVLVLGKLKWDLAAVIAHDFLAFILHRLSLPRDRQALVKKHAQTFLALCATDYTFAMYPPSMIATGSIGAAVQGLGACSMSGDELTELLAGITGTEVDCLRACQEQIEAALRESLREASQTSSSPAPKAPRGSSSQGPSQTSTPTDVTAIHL
How it was run: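 CDK4/CCND3 at 1.5 nM was preincubated with compound for 20 min at 23 °C, then reacted for 60 min with 1 mM ATP and 50 nM ULight-4E-BP1 (Thr37/46) peptide. The reaction was stopped with EDTA, and phosphorylation was read by HTRF with a Eu-anti-phospho antibody. IC50 values came from 11-point half-log titrations, typically from 10 μM.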

CDK6/CCND1 = CDK6/CCND1 (Homo sapiens, UniProt Q00534); assay: CDK6 homogeneous time-resolved fluorescence (HTRF) kinase assay; conditions: CDK6/CCND, 1 mM ATP
CDK6/CCND1, sequence (Q00534 whole entry): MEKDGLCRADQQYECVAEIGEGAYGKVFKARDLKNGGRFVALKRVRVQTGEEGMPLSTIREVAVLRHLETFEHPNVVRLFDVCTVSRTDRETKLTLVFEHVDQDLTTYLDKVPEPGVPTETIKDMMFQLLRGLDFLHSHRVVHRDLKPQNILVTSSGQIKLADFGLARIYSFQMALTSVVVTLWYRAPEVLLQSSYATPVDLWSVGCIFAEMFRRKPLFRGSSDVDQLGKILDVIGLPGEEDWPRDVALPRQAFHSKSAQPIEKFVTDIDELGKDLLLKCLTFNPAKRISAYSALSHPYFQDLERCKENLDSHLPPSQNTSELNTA
CDK6/CCND1, sequence (P24385 whole entry partner): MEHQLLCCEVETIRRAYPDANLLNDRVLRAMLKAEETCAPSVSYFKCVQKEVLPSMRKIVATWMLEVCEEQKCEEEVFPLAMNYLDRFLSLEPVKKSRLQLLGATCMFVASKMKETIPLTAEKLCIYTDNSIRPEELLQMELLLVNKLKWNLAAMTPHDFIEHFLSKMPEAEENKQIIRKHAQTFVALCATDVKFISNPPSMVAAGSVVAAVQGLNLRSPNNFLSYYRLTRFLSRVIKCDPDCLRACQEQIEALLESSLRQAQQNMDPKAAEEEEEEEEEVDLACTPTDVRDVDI
How it was run: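 Enzyme pre-incubated 20 min at 23 °C with compound, then reacted 60 min at 23 °C with 1 mM ATP and 50 nM ULight-4E-BP1 (Thr37/46) peptide; 1 nM enzyme, 1% DMSO. EDTA-stopped, Eu-anti-phospho antibody TR-FRET read (665 nm or 665/615 ratio); 11-point half-log titration from 10 μM gave IC50.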

CDK1/CCNB1 = CDK1/CCNB1 (Homo sapiens, UniProt P06493); assay: CDK1 homogeneous time-resolved fluorescence (HTRF) kinase assay; conditions: CDK1/CCNB
CDK1/CCNB1, sequence (P06493 whole entry): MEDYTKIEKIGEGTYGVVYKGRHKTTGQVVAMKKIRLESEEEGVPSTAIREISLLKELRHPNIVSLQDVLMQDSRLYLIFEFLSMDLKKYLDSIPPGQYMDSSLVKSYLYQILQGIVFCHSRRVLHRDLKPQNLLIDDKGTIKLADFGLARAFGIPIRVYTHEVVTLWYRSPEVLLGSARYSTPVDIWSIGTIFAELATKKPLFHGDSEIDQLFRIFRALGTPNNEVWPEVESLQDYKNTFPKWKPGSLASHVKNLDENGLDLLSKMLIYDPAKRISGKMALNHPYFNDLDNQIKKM
CDK1/CCNB1, sequence (P14635 whole entry partner): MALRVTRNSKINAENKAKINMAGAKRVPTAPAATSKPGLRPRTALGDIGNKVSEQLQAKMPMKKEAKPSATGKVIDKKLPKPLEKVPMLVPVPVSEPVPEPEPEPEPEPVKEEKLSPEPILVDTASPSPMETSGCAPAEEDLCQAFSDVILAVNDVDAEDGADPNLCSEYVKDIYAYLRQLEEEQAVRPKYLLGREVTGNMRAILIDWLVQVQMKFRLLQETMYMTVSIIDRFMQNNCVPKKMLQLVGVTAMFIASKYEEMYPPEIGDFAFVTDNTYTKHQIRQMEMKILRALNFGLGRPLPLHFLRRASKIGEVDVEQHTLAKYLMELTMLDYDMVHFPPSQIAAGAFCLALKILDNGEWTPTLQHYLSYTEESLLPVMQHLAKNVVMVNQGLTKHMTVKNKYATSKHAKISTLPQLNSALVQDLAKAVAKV
How it was run: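 High-ATP (1 mM) HTRF assay with 0.5 nM CDK1/cyclin B1 and 50 nM ULight-4E-BP1 (Thr37/46) substrate, 60 min at 23 °C after 20-min compound preincubation. IC50 values come from dose-response curves.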

[1] = 25-250 nM, read-out: CDK2/CCNE IC50, 25-250 nM
[2] = >250 nM, read-out: CDK4/CCND IC50, >250 nM
[3] = >250 nM, read-out: CDK6/CCND IC50, >250 nM
[4] = >250 nM, read-out: CDK1/CCNB IC50 >250 nM
[5] = <25 nM, read-out: CDK2/CCNE IC50, <25 nM
[6] = 25-250 nM, read-out: CDK4/CCND IC50, 25-250 nM
[7] = 25-250 nM, read-out: CDK6/CCND IC50, 25-250 nM
[8] = 25-250 nM, read-out: CDK1/CCNB IC50, 25-250 nM

Structure (SMILES)	IC50 (CDK2/CCNE1; [1]) [nM]	IC50 (CDK4/CCND3; [2]) [nM]	IC50 (CDK6/CCND1; [3]) [nM]	IC50 (CDK1/CCNB1; [4]) [nM]	IC50 (CDK2/CCNE1; [5]) [nM]	IC50 (CDK4/CCND3; [6]) [nM]	IC50 (CDK6/CCND1; [7]) [nM]	IC50 (CDK1/CCNB1; [8]) [nM]
Cc1c(-c2nccc3cnc(Nc4ccc(S(=O)(=O)NC5CCCCC5)cc4)cc23)ccc2c1cnn2CC(C)(C)O [Ex 758, N-cyclohexyl-4-((5-(1-(2-hydroxy-2-methylpropyl)-4-methyl-1H-indazol-5-yl)-2,6-naphthyridin-3-yl)amino)benzenesulfonamide]	25 to 250	> 250	> 250	> 250				
Cc1ccnc(NS(=O)(=O)c2ccc(Nc3cc4c(-c5ccc6c(cnn6CC(O)(C(F)(F)F)C(F)(F)F)c5C)nccc4cn3)cc2)n1 [Ex 759, 4-((5-(4-methyl-1-(3,3,3-trifluoro-2-hydroxy-2-(trifluoromethyl)propyl)-1H-indazol-5-yl)-2,6-naphthyridin-3-yl)amino)-N-(4-methylpyrimidin-2-yl)benzenesulfonamide]		> 250	> 250	> 250	< 25			
Cc1c(-c2nccc3cnc(Nc4ccc(S(=O)(=O)NC5CCN(CCO)CC5)cc4)cc23)ccc2c1cnn2CC(C)(C)O [Ex 762, 4-((5-(1-(2-hydroxy-2-methylpropyl)-4-methyl-1H-indazol-5-yl)-2,6-naphthyridin-3-yl)amino)-N-(1-(2-hydroxyethyl)piperidin-4-yl)benzenesulfonamide]					< 25	25 to 250	25 to 250	25 to 250
Cc1c(-c2nccc3cnc(Nc4ccc(S(=O)(=O)NC5CCN(C)CC5)cc4)cc23)ccc2c1cnn2CC(C)(C)O [Ex 763, 4-((5-(1-(2-hydroxy-2-methylpropyl)-4-methyl-1H-indazol-5-yl)-2,6-naphthyridin-3-yl)amino)-N-(1-methylpiperidin-4-yl)benzenesulfonamide]					< 25	25 to 250	25 to 250	25 to 250
Cc1c(-c2nccc3cnc(Nc4ccc(S(=O)(=O)NC5CCNCC5)cc4)cc23)ccc2c1cnn2CC(C)(C)O [Ex 764, 4-((5-(1-(2-hydroxy-2-methylpropyl)-4-methyl-1H-indazol-5-yl)-2,6-naphthyridin-3-yl)amino)-N-(piperidin-4-yl)benzenesulfonamide]				> 250	< 25	25 to 250	25 to 250	
COc1nc(S(C)(=O)=O)ccc1Nc1cc2c(-c3ccc4c(cnn4CC(C)(C)O)c3C)nccc2cn1 [Ex 766, 1-(5-(7-((2-methoxy-6-(methylsulfonyl)pyridin-3-yl)amino)-2,6-naphthyridin-1-yl)-4-methyl-1H-indazol-1-yl)-2-methylpropan-2-ol]	25 to 250	> 250	> 250	> 250				
Cc1c(-c2nccc3cnc(Nc4ccc(NS(=O)(=O)c5ccc(N6CCNCC6)cc5)cc4)cc23)ccc2c1cnn2CC(C)(C)O [Ex 767, N-(4-((5-(1-(2-hydroxy-2-methylpropyl)-4-methyl-1H-indazol-5-yl)-2,6-naphthyridin-3-yl)amino)phenyl)-4-(piperazin-1-yl)benzenesulfonamide]		> 250	> 250	> 250	< 25			
Cc1c(-c2nccc3cnc(Nc4ccc(NS(=O)(=O)c5ccccn5)cc4)cc23)ccc2c1cnn2CC(C)(C)O [Ex 768, N-(4-((5-(1-(2-hydroxy-2-methylpropyl)-4-methyl-1H-indazol-5-yl)-2,6-naphthyridin-3-yl)amino)phenyl)pyridine-2-sulfonamide]					< 25	25 to 250	25 to 250	25 to 250
Cc1c(-c2nccc3cnc(Nc4ccc(S(=O)(=O)Nc5nccc(N6CCOCC6)n5)cc4)cc23)ccc2c1cnn2CC(O)(C(F)(F)F)C(F)(F)F [Ex 769, 4-((5-(4-methyl-1-(3,3,3-trifluoro-2-hydroxy-2-(trifluoromethyl)propyl)-1H-indazol-5-yl)-2,6-naphthyridin-3-yl)amino)-N-(4-morpholinopyrimidin-2-yl)benzenesulfonamide]		> 250	> 250	> 250	< 25			
Cc1c(-c2nccc3cnc(Nc4ccc(S(=O)(=O)Nc5cc(N6CCOCC6)ccn5)cc4)cc23)ccc2c1cnn2CC(C)(C)O [Ex 772, 4-((5-(1-(2-hydroxy-2-methylpropyl)-4-methyl-1H-indazol-5-yl)-2,6-naphthyridin-3-yl)amino)-N-(4-morpholinopyridin-2-yl)benzenesulfonamide]				> 250	< 25	25 to 250	25 to 250	
Cc1c(-c2nccc3cnc(Nc4ccc(S(=O)(=O)Nc5ccc(N6CCOCC6)cn5)cc4)cc23)ccc2c1cnn2CC(C)(C)O [Ex 773, 4-((5-(1-(2-hydroxy-2-methylpropyl)-4-methyl-1H-indazol-5-yl)-2,6-naphthyridin-3-yl)amino)-N-(5-morpholinopyridin-2-yl)benzenesulfonamide]				> 250	< 25	25 to 250	25 to 250	
Cc1c(-c2nccc3cnc(Nc4ccc(S(=O)(=O)Nc5cc(C(C)(C)O)ccn5)cc4)cc23)ccc2c1cnn2CC(C)(C)O [Ex 774, 4-((5-(1-(2-hydroxy-2-methylpropyl)-4-methyl-1H-indazol-5-yl)-2,6-naphthyridin-3-yl)amino)-N-(4-(2-hydroxypropan-2-yl)pyridin-2-yl)benzenesulfonamide]				> 250	< 25	25 to 250	25 to 250	
Cc1c(-c2nccc3cnc(Nc4ccc(S(=O)(=O)Nc5cc(C(F)(F)F)cc(C(F)(F)F)n5)cc4)cc23)ccc2c1cnn2CC(C)(C)O [Ex 775, N-(4,6-bis(trifluoromethyl)pyridin-2-yl)-4-((5-(1-(2-hydroxy-2-methylpropyl)-4-methyl-1H-indazol-5-yl)-2,6-naphthyridin-3-yl)amino)benzenesulfonamide]		> 250	> 250	> 250	< 25			
Cc1c(-c2nccc3cnc(Nc4ccc(NS(=O)(=O)c5ccc(Cl)cn5)cc4)cc23)ccc2c1cnn2CC(C)(C)O [Ex 777, 5-chloro-N-(4-((5-(1-(2-hydroxy-2-methylpropyl)-4-methyl-1H-indazol-5-yl)-2,6-naphthyridin-3-yl)amino)phenyl)pyridine-2-sulfonamide]		> 250	> 250	> 250	< 25			
Cc1c(-c2nccc3cnc(Nc4ccc(NS(=O)(=O)c5ccc(C(F)(F)F)nc5)cc4)cc23)ccc2c1cnn2CC(C)(C)O [Ex 778, N-(4-((5-(1-(2-hydroxy-2-methylpropyl)-4-methyl-1H-indazol-5-yl)-2,6-naphthyridin-3-yl)amino)phenyl)-6-(trifluoromethyl)pyridine-3-sulfonamide]	25 to 250	> 250	> 250	> 250				
COc1ccc(S(=O)(=O)Nc2ccc(Nc3cc4c(-c5ccc6c(cnn6CC(C)(C)O)c5C)nccc4cn3)cc2)cn1 [Ex 779, N-(4-((5-(1-(2-hydroxy-2-methylpropyl)-4-methyl-1H-indazol-5-yl)-2,6-naphthyridin-3-yl)amino)phenyl)-6-methoxypyridine-3-sulfonamide]		> 250	> 250	> 250	< 25			
Cc1c(-c2nccc3cnc(Nc4ccc(NS(=O)(=O)c5ccc(N6CCOCC6)nc5)cc4)cc23)ccc2c1cnn2CC(C)(C)O [Ex 780, N-(4-((5-(1-(2-hydroxy-2-methylpropyl)-4-methyl-1H-indazol-5-yl)-2,6-naphthyridin-3-yl)amino)phenyl)-6-morpholinopyridine-3-sulfonamide]	25 to 250	> 250	> 250	> 250				
Cc1c(-c2nccc3cnc(Nc4ccc(NS(=O)(=O)c5cnccn5)cc4)cc23)ccc2c1cnn2CC(C)(C)O [Ex 781, N-(4-((5-(1-(2-hydroxy-2-methylpropyl)-4-methyl-1H-indazol-5-yl)-2,6-naphthyridin-3-yl)amino)phenyl)pyrazine-2-sulfonamide]				> 250	< 25	25 to 250	25 to 250	
